Results published in paper PMC8881077 (Journal of Enzyme Inhibition and Medicinal Chemistry, 2022).

Columns and labels:
[1] = in vitro; settings: PAMPA
[2] = system: SPF Kunming mice; test: Acute toxicity; format: in vivo
Protocol: Kunming mice at a body weight of 18–22 g (six weeks old, either gender) were supplied by the Centre of Experimental Animals of Sichuan Academy of Chinese Medicine Sciences (eligibility certification no. SCXK-Chuan2018-19). Mice were maintained under standard conditions with a 12 h:12 h light-dark cycle at 20−22 °C with a relative humidity of 60 − 70%. Sterile food and water were provided according to institutional guidelines. Prior to each experiment, mice were fasted overnight and allowed free access to water. […] After the administration of the compound 5f, the mice were observed continuously for the first 4 h for any abnormal behaviour and mortality changes, intermittently for the next 24 h, and occasionally thereafter for 14 days for the onset of any delayed effects. All animals were sacrificed on the 14th day after drug administration and were macroscopically examined for possible damage to the heart, liver, and kidneys.

[3] = system: normal human hepatocytes cell line (LO2); test: Hepatotoxicity on LO2 cells; format: cell-based; settings: 2.5 μM to 80.0 μM
Protocol: The anti-AD drug tacrine has been forced to withdraw due to severe hepatotoxicity. Thus, the hepatotoxicity of compounds 5f on normal human hepatocytes cell line (LO2) was evaluated using MTT assay. […] Furthermore, the hepatoprotective activity of compound 5f on H2O2-induced live injury was tested using an MTT assay. […]
• Materials. LO2 cells purchased from Wuhan Punosi Life Technology Co., Ltd. 30% H2O2, Trichloroacetic acid (TCA), SRB, DMEM medium (HyClone), Foetal bovine serum (LNSER, article number: S711-001S), Penicillin streptomycin mixture (double antibiotic) (Solarbio), 0.25% trypsin-EDTA digestive juice (Solarbio), DMSO (Solarbio), Potassium dihydrogen phosphate (Xiyu Science Co., Ltd., CAS: 7778-77-0); Ultra-clean workbench (Wuxi Easy Purification Equipment Co., Ltd., model: SW-CJ-VS2); Carbon dioxide incubator (Esco, model: 2014-88759); […]; • Experiment method. (a) Cell culture: cultured in DMEM medium containing 10% FBS and 1% double-antibody, placed in 37 °C, 5% CO2 constant temperature and humidity incubator, changed every 2 days, subcultured when cells were 90% confluent. […] The OD value was measured at 515 nm using a microplate reader. […] After treatment with H2O2 for 6h, the survival rate was measured by the SRB method.

Which Papp at 100 μg/mL [1] does the source give for `CCN(CCCCCOc1cc(O)c2c(c1)OC(c1ccc(O)cc1)CC2=O)Cc1ccccc1` (centres unmarked) [Compound 5f, 7-((5-(benzyl(ethyl)amino)pentyl)oxy)-5-hydroxy-2–(4-hydroxyphenyl)chroman-4-one] here?
Its Papp at 100 μg/mL is 6.9 ± 0.36 ×10⁻⁶ cm/s.

And the “acute toxicity, recovery” value ([2]; after 24h)?
Its value is “returned to normal”.

And the “acute toxicity, heart, liver, spleen, lung and kidney” value ([2]; after 7 days)?
The value was “no abnormalities were observed”.

And the “acute toxicity, observed signs” value ([2]; dose of 500 mg/kg, intragastric)?
Its value is “decreased spontaneous activity and movement, drowsiness, dyspnoea and reduced breathing rate”.

And the “LO2 cell viability (hepatotoxicity)” value [3]?
The value was “did not show an obvious change until the concentration increased to 40.0 μM”.
